In PubChem BioAssay AID1963865 (Molecular Pharmacology Branch, DTP, NCI, 2024):

Tested on: KRAS PDC multicell spheroid viability
Test: Anticancer human tumor 825966-067-R-J1-PDC patient-derived colon carcinoma cell line growth inhibition [KRAS2]
Settings: for viability, T/C: stronger effect = lower value
Procedure, shortened: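 KRAS-mutant tumor cells were grown as spheroids with HUVEC endothelial cells and human MSCs as stroma. Targeted agents were tested alone and with KRAS pathway inhibitors. Doses started at or near clinical Cmax, or 10 microM, descending half-log.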

[1] = curve of first compound, second compound 0.1 µM
[2] = curve of first compound, second compound 0.316 µM
[3] = curve of first compound, second compound 1 µM
[4] = curve of first compound, second compound 3.16 µM
[5] = curve of first compound, second compound 10 µM
[6] = second compound 0.1 µM, first compound 0.0316 µM
[7] = second compound 0.1 µM, first compound 0.1 µM
[8] = second compound 0.1 µM, first compound 0.316 µM
[9] = second compound 0.1 µM, first compound 1 µM
[10] = second compound 0.1 µM, first compound 3.16 µM
[11] = second compound 0.1 µM, first compound 10 µM
[12] = second compound 0.316 µM, first compound 0.0316 µM
[13] = second compound 0.316 µM, first compound 0.1 µM
[14] = second compound 0.316 µM, first compound 0.316 µM
[15] = second compound 0.316 µM, first compound 1 µM
[16] = second compound 0.316 µM, first compound 3.16 µM
[17] = second compound 0.316 µM, first compound 10 µM
[18] = second compound 1 µM, first compound 0.0316 µM
[19] = second compound 1 µM, first compound 0.1 µM
[20] = second compound 1 µM, first compound 0.316 µM
[21] = second compound 1 µM, first compound 1 µM
[22] = second compound 1 µM, first compound 3.16 µM
[23] = second compound 1 µM, first compound 10 µM
[24] = second compound 3.16 µM, first compound 0.0316 µM
[25] = second compound 3.16 µM, first compound 0.1 µM
[26] = second compound 3.16 µM, first compound 0.316 µM
[27] = second compound 3.16 µM, first compound 1 µM
[28] = second compound 3.16 µM, first compound 3.16 µM
[29] = second compound 3.16 µM, first compound 10 µM
[30] = second compound 10 µM, first compound 0.0316 µM
[31] = second compound 10 µM, first compound 0.1 µM
[32] = second compound 10 µM, first compound 0.316 µM
[33] = second compound 10 µM, first compound 1 µM
[34] = second compound 10 µM, first compound 3.16 µM
[35] = second compound 10 µM, first compound 10 µM
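Note: spheroids exposed to compounds for 7 days.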
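Throughout, for viability, T/C: 100% = DMSO vehicle control viability.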

| SMILES | IC50 [1] [nM] | IC50 [2] [nM] | IC50 [3] [nM] | IC50 [4] [nM] | viability, T/C [6] [%] | viability, T/C [7] [%] | viability, T/C [8] [%] | viability, T/C [9] [%] | viability, T/C [12] [%] | viability, T/C [13] [%] | viability, T/C [14] [%] | viability, T/C [15] [%] | viability, T/C [18] [%] | viability, T/C [19] [%] | viability, T/C [20] [%] | viability, T/C [21] [%] | viability, T/C [24] [%] | viability, T/C [25] [%] | viability, T/C [26] [%] | viability, T/C [27] [%] | further results |
| --- | --- | --- | --- | --- | --- | --- | --- | --- | --- | --- | --- | --- | --- | --- | --- | --- | --- | --- | --- | --- | --- |
| COC(=O)c1ccc2c(C(=Nc3ccc(N(C)C(=O)CN4CCN(C)CC4)cc3)c3ccccc3)c(O)[nH]c2c1 + CNCc1ccccc1-c1csc(C(C)Nc2nc(C)nc3cc(OC)c(OC)cc23)c1 | 567 | 1180 | 910 | < 31.6 | 84.2 | 82.4 | 77.7 | 23.2 | 62 | 86.3 | 97.5 | 58.4 | 75.7 | 78.2 | 87 | 47.3 | 23 | 38.6 | 0.57 | 0.22 | IC50 [5]: < 31.6 nM; viability, T/C [10]: 0.18%; viability, T/C [11]: 0.19%; viability, T/C [16]: 0.13%; viability, T/C [17]: 0.2%; viability, T/C [22]: 0.9%; viability, T/C [23]: 0.21%; viability, T/C [28]: 0.13%; viability, T/C [29]: 0.21%; viability, T/C [30]: 2.62%; viability, T/C [31]: 0.25%; viability, T/C [32]: 1.09%; viability, T/C [33]: 0.18%; viability, T/C [34]: 0.17%; viability, T/C [35]: 0.26% |
| CCNC(=O)CC1N=C(c2ccc(Cl)cc2)c2cc(OC)ccc2-n2c(C)nnc21 (configuration not stated) + C=CC(=O)N1CCN(c2nc(OCC3CCCN3C)nc3c2CCN(c2cccc4cccc(C)c24)C3)CC1CC#N | > 10000 | > 10000 | > 10000 | 725 | 79.5 | 112 | 113 | 89.5 | 90 | 119 | 121 | 118 | 91.8 | 110 | 126 | 85.8 | 109 | 125 | 87.6 | 20.3 | IC50 (curve of first compound, second compound 0.0316 µM): > 10000 nM; viability, T/C (second compound 0.0316 µM, first compound 0.0316 µM): 80.1%; viability, T/C (second compound 0.0316 µM, first compound 0.1 µM): 112%; viability, T/C (second compound 0.0316 µM, first compound 0.316 µM): 118%; viability, T/C (second compound 0.0316 µM, first compound 1 µM): 115%; viability, T/C (second compound 0.0316 µM, first compound 3.16 µM): 82.2%; viability, T/C (second compound 0.0316 µM, first compound 10 µM): 75.9%; viability, T/C [10]: 79.4%; viability, T/C [11]: 75.9%; viability, T/C [16]: 69.7%; viability, T/C [17]: 72.4%; viability, T/C [22]: 44.4%; viability, T/C [23]: 59.5%; viability, T/C [28]: 55.5%; viability, T/C [29]: 30.7% |
| CCN1CCN(Cc2ccc(Nc3ncc(F)c(-c4cc(F)c5nc(C)n(C(C)C)c5c4)n3)nc2)CC1 + CNCc1ccccc1-c1csc(C(C)Nc2nc(C)nc3cc(OC)c(OC)cc23)c1 | > 1000 | > 1000 | 705 | 68 | 126 | 137 | 174 | 123 | 115 | 129 | 176 | 78 | 154 | 173 | 147 | 10.1 | 88.5 | 30.9 | 0.29 | 0.27 | IC50 [5]: < 3.16 nM; viability, T/C (second compound 0.1 µM, first compound 0.00316 µM): 98.2%; viability, T/C (second compound 0.1 µM, first compound 0.01 µM): 99.1%; viability, T/C (second compound 0.316 µM, first compound 0.00316 µM): 101%; viability, T/C (second compound 0.316 µM, first compound 0.01 µM): 128%; viability, T/C (second compound 1 µM, first compound 0.00316 µM): 111%; viability, T/C (second compound 1 µM, first compound 0.01 µM): 122%; viability, T/C (second compound 3.16 µM, first compound 0.00316 µM): 110%; viability, T/C (second compound 3.16 µM, first compound 0.01 µM): 127%; viability, T/C (second compound 10 µM, first compound 0.00316 µM): 0.26%; viability, T/C (second compound 10 µM, first compound 0.01 µM): 0.29%; viability, T/C [30]: 0.22%; viability, T/C [31]: 0.18%; viability, T/C [32]: 0.15%; viability, T/C [33]: 0.22% |
| CC(=O)OC12COC1CC(O)C1(C)C(=O)C(O)C3=C(C)C(OC(=O)C(O)C(NC(=O)OC(C)(C)C)c4ccccc4)CC(O)(C(OC(=O)c4ccccc4)C21)C3(C)C (configuration not stated) | – | – | – | – | – | – | – | – | – | – | – | – | – | – | – | – | – | – | – | – | viability, T/C (compound 0.01 µM): 20.3% [middle of 5 runs]; viability, T/C (compound 0.0316 µM): 23.2% [middle of 5 runs]; viability, T/C (compound 0.1 µM): 18.5% [middle of 5 runs]; viability, T/C (compound 0.316 µM): 23.7% [middle of 5 runs]; viability, T/C (compound 1 µM): 28.8% [middle of 5 runs]; viability, T/C (compound 3.16 µM): 36.5% [middle of 5 runs]; IC50 (curve of compound): < 10 nM |
| COc1cc2nccc(Oc3ccc(NC(=O)C4(C(=O)Nc5ccc(F)cc5)CC4)cc3)c2cc1OC + COc1cc2nc(C)nc(NC(C)c3cc(N)cc(C(F)(F)F)c3)c2cc1OC1CCOC1 | 1560 | 1460 | 1630 | 675 | 80.9 | 87.8 | 83.9 | 75.1 | 96.2 | 81.1 | 77.5 | 71.4 | 77.1 | 98.6 | 78.5 | 83.5 | 82.3 | 80.6 | 91.9 | 31.9 | IC50 [5]: < 31.6 nM; viability, T/C [10]: 9.68%; viability, T/C [11]: 7.53%; viability, T/C [16]: 6.75%; viability, T/C [17]: 4.21%; viability, T/C [22]: 4.2%; viability, T/C [23]: 5.34%; viability, T/C [28]: 2.11%; viability, T/C [29]: 0.21%; viability, T/C [30]: 21%; viability, T/C [31]: 3.18%; viability, T/C [32]: 1.6%; viability, T/C [33]: 1.58%; viability, T/C [34]: 0.32%; viability, T/C [35]: 0.7% |
